Entries after “also recorded” stand apart in the source; their conditions may differ.
Tests used:
N-MLV [1] = experiment: N-MLV / B-MLV GFP vector infection of transduced TE671 cells, FACS; type: cell-based, murine leukemia virus; settings: for N-MLV replication defect (N-tropic restriction by endogenous TRIM5αhu) in cells expressing the construct: TE671 cells, control cells: B-MLV ˜200-fold more infectious than N-MLV
Procedure: (§1) FIGS. 7a-7c. […] (a) TE671 cells expressing the indicated LPCX derived constructs were infected with GFP-expressing B-MLV and N-MLV vectors at multiple doses. Cells were infected in the presence or absence of As2O3 (3 μM). Two days later, the percentage of infected cells was determined by FACS. (b) OMK cells were transduced with MIG (Vect) or with MIG-TRIM5αhu (T5hu) and challenged with DsRed-expressing N-MLV or B-MLV vectors. Two days later, the percentage of infected cells was determined by FACS.
FIGS. 8a-8c. Effect of TRIMStop on TRIM5αhu antiviral activity. (a) TE671-Vector (Vector) cells and TE671-TRIMStop cells were infected with HIV-1NL-GFP (left panel) or with N- and B-MLV (right panel). Two days later, the percentage of infected (GFP expressing) cells was determined by FACS. (b) Total RNA was prepared from TE671-Vector (Vect), TE671-TRIMCyp (TC), and TE671-TRIMStop (TS), and RT-PCR was used to detect endogenous TRIM5α or TRIMCyp/TRIMStop. RT was performed in the presence (+) or absence (−) of reverse transcriptase. (c) 293T cells were transfected with LPCX (Vect), LPCX-TRIMCyp (TC), or LPCX-TRIMStop (TS), and Western blotting was performed using an antibody specific to TRIM5.
Next, we analyzed MLV replication in TE671-TRIM5αrh, TE671-TRIMCyp, and the control TE671-vector cells.

HIV-1 [2] = type: cell-based, human immunodeficiency virus type 1
Procedure: (§2) HIV-DsRed and HIV-GFP vectors were produced in 293T cells by co-transfection of CSGW or CSRW with p8.9NΔSB (wild type or G89V mutant) and pMD.G, also at 5:5:1 ratio. HIV/Env-/GFP and SIV/Env-/GFP viruses were produced by cotransfection of the wild type or G89V HIV/Env-/GFP plasmids with pMD.G at a 10:1 ratio. All vectors and viruses were harvested 48 h post-transfection, filtered (0.45-μm filter, Pall Acrodisc), aliquoted, and stored at −80° C. Stocks were normalized by reverse transcriptase activity or p24 ELISA (8).
(§3) Infection assays—Cells were assayed by flow cytometry 48 to 72 h post-infection to determine the percentage of cells that were GFP-positive (FL-1) or DsRed-positive (FL-2). Cells transduced with pMIG vectors and infected with HIV-DsRed were gated to limit the analysis to GFP-positive cells.

CAp30 from N-MLV virions = experiment: CA pull-out of N-MLV virions with GST-TRIM5 fusions; type: binding, murine leukemia virus; settings: GST fusion produced in 293T cells, purified virions
N-MLV [3] = experiment: N-MLV DsRed vector challenge of OMK cells transduced with MIG-TRIM5αhu; type: cell-based, murine leukemia virus
Procedure: as §1
(§4) We also performed the reciprocal experiment, transducing owl monkey OMK cells with TRIM5αhu and challenging them with MLV or HIV-1.

B-MLV = B-MLV DsRed vector challenge of OMK cells transduced with MIG-TRIM5αhu; type: cell-based, murine leukemia virus
Procedure: as §1, §4

CAp30 from B-MLV virions = experiment: CA pull-out of B-MLV virions with GST-TRIM5 fusions; type: binding, murine leukemia virus; settings: GST fusion produced in 293T cells, purified virions
HIV-1 [4] = experiment: HIV-1-derived CSRW vector challenge of OMK/MIG and OMK/MIG-T5hu cells; type: cell-based, human immunodeficiency virus type 1; settings: OMK cells expressing TRIM5αhu
Procedure: as §1, §4

HIV-1NL-GFP = type: cell-based, human immunodeficiency virus type 1; settings: for HIV-1 cDNA synthesis (Southern blot) / HIV-1 infection (GFP-positive cells by FACS): TE671 cells; for HIV-1 cDNA synthesis (Southern blot): 16 h after infection; for HIV-1 infection (GFP-positive cells by FACS): LPCX vectors
Procedure: FIG. 6. […] LPCX-based retroviral vectors were used to transduce the indicated genes into human TE671 cells. Vect, Cyp, TS, TC and T5rh designate, respectively, Vector control, owl monkey CypA, TRIMStop, TRIMCyp, and TRIM5αrh. […] One twentieth of the cells were maintained in culture for another day and used to determine the percentage of GFP-positive cells by FACS (bottom of the figure). Total DNA was extracted from the remainder of the cells 16 h after infection, and 5 μg of each DNA sample was analyzed by Southern blotting. The positions of the linear, 1-LTR, and 2-LTR HIV-1 cDNA species are indicated on the left. “Total” DNA refers to a band specific to all HIV-1 cDNA forms, including the integrated DNA.
We transduced human rhabdomyosarcoma TE671 cells (45) with previously described LPCX vectors (reference 5, see also Example 1) bearing cDNAs for TRIM5αrh, TRIMCyp, or owl monkey CypA. Cells were also transduced with a vector expressing TRIMStop, a truncated version of TRIMCyp lacking the CypA domain (see Example 1). Pools of transduced cells were selected in puromycin and then assessed for susceptibility to infection with HIV-1NL-GFP (32). […] We monitored the percentage of infected (GFP-expressing) cells by fluorescence-activated cell sorting (FACS) and the synthesis of viral cDNA in the infected cells using a Southern blot designed to detect full-length, linear viral cDNA and circular viral cDNAs that form in the nucleus (31, 32, 47).

[5] = tested on: TRIM5 orthologues (TRIMCyp, TRIM5αrh, TRIM5αhu, TRIMStop, huTRIMStop); experiment: Yeast two-hybrid system, β-galactosidase activity: TRIM5 orthologues; type: binding; settings: LexA / B42 fusions, S. cerevisiae EGY48
Excerpt: (§5) FIGS. 9A-9B. TRIMCyp and TRIMStop both bind TRIM5αhu. (A) Yeast two-hybrid system. […] (B) Binding in mammalian cells. TRIM5αhu was fused to GST.

HIV-1 [6] = tested on: HIV-1
Procedure: (§6) FIGS. 3a-3e. […] WT, wild type. HeLa cells (d) or Rat2 cells (e) transduced with the indicated cDNAs were infected with HIV-1.
as §2
(§7) Generation of stable cell lines—To generate stable RNAi knockdown lines, 1 ml of pMH vector-containing media was pelleted onto OMK cells (1,200 g for 72 min) in 12-well plates. Infection was repeated 24 h later. ntTRIMCyp, TRIMStop and ntCypAOM cDNAs were transduced with either pMIG (OMK and HeLa cells) or pLPCX (TE671 and Rat2 cells). pLPCX-infected cells were selected in 1 μg ml^−1 puromycin.
as §3

SIVMAC239 = SIVMAC239 infection of TE671 cells transduced with cDNAs; type: cell-based, simian immunodeficiency virus; settings: stable TE671 cell lines
Procedure: as §6, §2, §7, §3

TRIM5αhu = biological target: T1, TRIM5αhu (Homo sapiens, UniProt Q9C035); experiment: GST pull down from cotransfected 293T cells, Western blotting; type: binding; settings: glutathione-Sepharose beads, anti-TRIM5 Western blot
T1 construct: expressed in transfected cells; host or cells: 293T
Excerpt: as §5
To investigate TRIM5:TRIMCyp heterodimerization in mammalian cells, we expressed TRIM5αhu in fusion with glutathione-S-transferase (GST) and transfected 293T cells with either GST or GST-TRIM5αhu. These cells were cotransfected with the LPCX plasmid constructs described above that express TRIMCyp or TRIMStop. […] The blot was also probed with an anti-cyclophilin A antibody, confirming the identity of TRIMCyp (FIG. 9b).

HIV-1 [7] = settings: OMKMH-CypA-147 cells, pMIG vector, HIV-1 DsRed vector
Procedure: as §7, §3

HIV-1 CA = HIV-1 CA (Human immunodeficiency virus type 1 group M subtype B, UniProt P12493); settings: detergent-prepared virion cores, affinity chromatography
Procedure: Retrovirion cores can be liberated from the viral membrane envelope by detergent (54). HIV-1 virion cores were prepared with several different detergents and mixed with recombinant TRIM5 orthologues.

HIV-1 Gag = HIV-1 Gag (Human immunodeficiency virus type 1 group M subtype B, UniProt P12493); settings: LexA / B42 fusions, S. cerevisiae EGY48
Procedure: (A) Yeast two-hybrid system. […] Pairs of fused LexA and B42 expression plasmids were transformed into Saccharomyces cerevisiae strain EGY48. For each transformant, β-galactosidase activity for three colonies is reported in Miller units with the standard deviation. (B) Binding in mammalian cells.
Fusions of these proteins with LexA and/or B42 were constructed, and the interactions between fusion proteins were analyzed using a previously described system (37) in which reporter gene β-galactosidase activity was assessed with a quantitative assay (43).

HIV-1 [8] = tested on: HIV-1; remark: listed apart in the source
Procedure: as §6, §7, §3

HIV-1 clone NL4-3 = experiment: Spreading HIV-1 NL4-3 infection of transduced Jurkat T cells, supernatant reverse transcriptase activity; type: cell-based, human immunodeficiency virus type 1; settings: Jurkat T cells transduced with owl monkey TRIMCyp cDNA
Excerpt: FIG. 13. […] Retroviral vectors were used to transduce human Jurkat T cells with the cDNA encoding owl monkey TRIMCyp. Control cells were transduced with vector lacking the cDNA. Cells were challenged with full infectious HIV-1 clone NL4-3. Supernatant was collected and assessed for viral reverse transcriptase activity (a quantitative measure of the amount of virus produced in the culture).

T1 sequence (Q9C035 whole entry): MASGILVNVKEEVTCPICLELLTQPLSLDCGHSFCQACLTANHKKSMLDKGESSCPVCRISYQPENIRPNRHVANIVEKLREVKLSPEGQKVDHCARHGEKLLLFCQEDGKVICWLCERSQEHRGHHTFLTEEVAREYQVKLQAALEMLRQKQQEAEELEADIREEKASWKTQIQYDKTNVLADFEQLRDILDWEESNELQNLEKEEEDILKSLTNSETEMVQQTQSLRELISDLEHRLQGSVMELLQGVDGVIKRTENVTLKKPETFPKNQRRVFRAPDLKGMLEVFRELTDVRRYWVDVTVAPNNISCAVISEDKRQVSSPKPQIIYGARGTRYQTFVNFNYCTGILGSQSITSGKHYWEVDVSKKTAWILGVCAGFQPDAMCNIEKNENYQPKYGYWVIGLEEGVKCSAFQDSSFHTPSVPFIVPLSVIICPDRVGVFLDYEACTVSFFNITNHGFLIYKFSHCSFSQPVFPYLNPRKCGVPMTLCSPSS

O=[As]O[As]=O (centres unmarked) [As2O3]
enhancement of infectivity in cells expressing TRIM5αrh or TRIMCyp (N-MLV [1]; TE671-TRIM5αrh and TE671-TRIMCyp, As2O3 3 μM): no longer enhanced infectivity | increase of N-MLV infectivity (N-MLV [1]; control TE671 cells, As2O3 3 μM): ≥ 10 fold

C/C=C/C[C@@H](C)[C@@H](O)[C@H]1C(=O)N[C@@H](CC)C(=O)N(C)CC(=O)N(C)[C@@H]([C@@H](C)CC)C(=O)N[C@@H](C(C)C)C(=O)N(C)[C@@H](CC(C)C)C(=O)N[C@@H](C)C(=O)N[C@H](C)C(=O)N(C)[C@@H](CC(C)C)C(=O)N(C)[C@@H](CC(C)C)C(=O)N(C)[C@@H](C(C)C)C(=O)N1C [MeIle^4-CsA]
HIV-1 infection of OMK cells on drug treatment of target cells (HIV-1 [2]): permits HIV-1 to infect OMK cells at an efficiency similar to that of SIV

TRIM5 lacking the SPRY domain: GST fusion with human TRIM5 lacking the SPRY domain
association of CAp30 from N-MLV virions (CAp30 from N-MLV virions): did not associate

TRIM5αhu: human TRIM5α; in Example 3 produced as a GST-fusion protein in 293T cells
restrictive effect on the replication of N-MLV (N-MLV [3]): approximately twofold | effect on B-MLV (B-MLV): no effect | association of CAp30 from B-MLV virions (CAp30 from B-MLV virions): did not associate | association of CAp30 from N-MLV virions (CAp30 from N-MLV virions): associated | restriction of HIV-1 compared with control cells (HIV-1 [4]): similar

TRIM5αrh: alpha isoform of rhesus macaque TRIM5 [reference compound]
N-MLV replication defect (N-tropic restriction by endogenous TRIM5αhu) in cells expressing the construct (N-MLV [1]): about 20 fold | HIV-1 cDNA synthesis (Southern blot) (HIV-1NL-GFP): inhibited HIV-1 cDNA synthesis | HIV-1 infection (GFP-positive cells by FACS) (HIV-1NL-GFP): inhibited HIV-1 infection of TE671 cells

TRIMCyp: owl monkey TRIM5-CypA fusion protein, 54-kD, SEQ ID NO:4; ntTRIMCyp is its RNAi-resistant cDNA with silent mutations
interaction with TRIM5 orthologues [5]: interacted equally well; also recorded: associates with human TRIM5-α | HIV-1 infection / titre in cells expressing the cDNA (HIV-1 [6]): highly resistant to HIV-1 infection | SIVMAC239 infection in cells expressing the cDNA (SIVMAC239): unaffected | association with GST-TRIM5αhu (TRIM5αhu): associated with TRIM5αhu | HIV-1 restriction after transduction of RNAi-resistant cDNA (HIV-1 [7]): restricted HIV-1 | N-MLV replication defect (N-tropic restriction by endogenous TRIM5αhu) in cells expressing the construct (N-MLV [1]): fully abrogated | association of HIV-1 CA with TRIM5 orthologue (HIV-1 CA): associated | interaction with HIV-1 Gag (HIV-1 Gag): interacted equally well | HIV-1 restriction in transduced HeLa cells (HIV-1 [8]; pMIG vector): exhibited the same restriction | HIV-1 restriction in non-primate cells (HIV-1 [8]; rat fibroblasts (Rat2)): functional | efficiency of inhibition of HIV-1 replication relative to TRIM5αrh (HIV-1NL-GFP): roughly fivefold more efficiently than TRIM5αrh | HIV-1 cDNA synthesis (Southern blot) (HIV-1NL-GFP): inhibited HIV-1 cDNA synthesis | HIV-1 infection (GFP-positive cells by FACS) (HIV-1NL-GFP): inhibited HIV-1 infection of TE671 cells | protection of human T cells from spreading HIV-1 infection (HIV-1 clone NL4-3): protected from a spreading, cytopathic HIV-1 infection

sanglifehrin
HIV-1 infection of OMK cells on drug treatment of target cells (HIV-1 [2]): permits HIV-1 to infect OMK cells at an efficiency similar to that of SIV

B1: TRIMStop: construct in which TRIMCyp has been truncated with a stop codon replacing the first codon of the CypA domain (protein)
chain: MASRILVNIKEEVTCPICLELLTEPLSLDCGHSFCQACITANHKKSMPHQGERSCPLCRISYSSENLRPNRHLVNIVERLREVMLSPEEGQKVDHCAHHGEKLVLFCQQDGNVICWLCERSQEHRGHQTFLVEEVAQKYREKLQVALEMMRQKQKDAEKLEADVREEQASWKIQIQNDKTNIMAEFKKRRDILDCEESKELQNLEKEEKNILKRLVQSENDMVLQTQSVRVLISDLEHRLQGSVMELLQGVDGVIKRIEKVTLQNPKTFLNEKRRIFQTPDLKGTLQVFKEPTEVQRYWDAAAWDLVASA
interaction with TRIM5 orthologues [5]: as competent as TRIMCyp | HIV-1 infection / titre in cells expressing the cDNA (HIV-1 [6]): no effect on HIV-1 titre | association with GST-TRIM5αhu (TRIM5αhu): associated with TRIM5αhu | N-MLV replication defect (N-tropic restriction by endogenous TRIM5αhu) in cells expressing the construct (N-MLV [1]): did not affect the capacity of TE671 cells to restrict N-MLV replication | interaction with HIV-1 Gag (HIV-1 Gag): not able to interact with Gag

— patent publication US8084593B2, “Polynucleotide encoding a TRIM-Cyp polypeptide, compositions thereof, and methods of using same” (The Trustees of Columbia University in the City of New York, priority 2004, dated 2011)
